Read-outs that look alike come from different tables or passages of the source.
Legend:
Format in all cases: in vivo
[1] = test system: foot mucosa of slugs of species Arion
[2] = test system: foot mucosa of slugs of species Limax; conditions: for % MP, mucus production as % of the body weight at the start of the day before the treatment: 1% w/v (HPβCD 5% w/v) in PBS, 15 min; for ALP released into PBS / LDH released into PBS / Protein released into PBS: 1% w/v (HPβCD 5% w/v), total mean of 7 samples/day per slug
Method: Slugs of the species Limax are terrestial slugs have lungs and also a small internal shell. As test substances hydroxypropyl-β-cyclodextrin (HPβCD), sodium tauro-24,25-dihdrofiisidate (STDHF) and sodium deoxycholate were selected. Benzalkonium chloride (1% w/v), HPβCD (5% w/v), STDHF (1% w/v) and SDC (1% w/v) were prepared in phosphate buffered saline (PBS, pH 7.4).
The enzymes lactate dehydrogenase (LDH) and alkaline phosphatase (ALP) and total protein released into the PBS were determined. The change in body weight and mucus production caused by the treatment were examined.

[3] = test system: foot mucosa of slugs (species Arion); experiment: Slug mucosal toxicity test, Example 1 (15 min daily treatment, five days); conditions: for % WL, reduction in weight (weight loss) caused by the 15 minute treatment as % of initial body weight of the day / % MP, mucus production as % of the body weight at the start of the day before the treatment: 1% w/v in PBS; for % MP, mucus production as % of the body weight at the start of the day before the treatment / ALP released into PBS / LDH released into PBS / Protein released into PBS: 15 min; for ALP released into PBS / LDH released into PBS / Protein released into PBS: total mean of 7 samples/day per slug
Description: Initially, the slugs are kept on a culture under controlled conditions of temperature and humidity until they have reached a stable body weight. The purpose of achieving a stable body weight is to improve the reproducibility of the results, particularly as the release of substances from the slugs may conveniently be measured in terms of the body weight thereof. The slugs are then isolated from the culture and placed in a vented plastic box lined with moist paper towel and placed at 95% relative humidity at 20° C. seven days before the start of an experiment. The slugs were not bred in any particular way, i.e. they were wild slugs. It is anticipated that even more accurate and reproducible results can be obtained by selective breeding of the slugs, although as shown by the test results this is not a necessary requirement of the present invention to obtain accurate and useful data.
The test procedure is simple and rapid. The chemical substance to be tested is applied directly to the mucosal membrane of a slug, e.g. to the foot, by placing the slug individually in a petri dish containing the test substance. Slugs treated with phosphate buffered saline are used as a negative control. As a positive control slugs treated with a known toxic substance, benzalkonium chloride, were used.
Because the mucosal epithelium of interest is located at the outside of the slug the effect of substances can be easily observed. […] This can also be simply measured by weighing the petri dish before and after the treatment of the slugs with the chemical substance (with the slugs removed in each case). Additionally an indirect response to epithelial damage caused by a chemical substance may be determined by the reduction of the body weight of the slugs due to the leakage of haemolymphatic fluids through the damaged foot surface.
After the treatment the slugs are transferred individually to a fresh petri dish containing phosphate buffered saline. After a suitable exposure time, e.g. 1 hour the phosphate buffered saline is collected and analysed for the presence of proteins and/or enzymes, e.g. lactate dehydrogenase and/or alkaline phosphatase, or other marker substances released from the foot or epithelium of the slug, for example membrane associated components such as phospholipids or cholesterol. This procedure can be repeated after periods of several hours in order to determine the reversibility of the cell damage caused by the test chemical substance. The concentration or amount of the chemical substance to be tested can be changed and the influence of the concentration can be easily examined. The exposure time can also be changed if required. The slugs can be treated during several successive days in order to investigate the subchronical effect of substances on the foot mucosa.
Seven days before the start of the experiment the slugs were isolated in a plastic box lined with moist paper towel and placed at 95% relative humidity at 20° C. As test substances didecanyol-L-α-phosphatidylcholine (DDPC) and sodium deoxycholate (SDC) were selected. Benzalkonium chloride (1% w/v), SDC (1% w/v) and DDPC (1%, w/v) were prepared in phosphate buffered saline (PBS, pH 7.4). […] During the test the slugs are preferably kept in a generally calm and normal state and are not subjected to mechanical vibrations or mechanical or electrical disturbances which may affect mucus production.
The enzymes (lactate dehydrogenase (LDH) and alkaline phosphatase (ALP)) and total protein released into the PBS were determined. The slugs were weighed before and after the incubation period to determine the body weight changes. The mucus production was measured by weighing the petri dishes before and after the treatment with a test substance. The results are shown in Table 1 and shown graphically in FIGS. 1 to 5.

hydroxypropyl-β-cyclodextrin [HPβCD]
% MP, mucus production ([1]; in vivo): 0%
mucus production (in words) ([1]; in vivo): no mucus production
protein and enzyme release (in words) ([1]; in vivo): low protein and enzyme release
ranking order of increasing toxicity ([1]; in vivo): PBS, 5% HPβCD<1% STDHF<1% SDC and 1% BAC
mucus production (in words) ([2]; in vivo): no mucus production
protein and enzyme release (in words) ([2]; in vivo): low protein and enzyme release
ranking order of increasing toxicity ([2]; in vivo): PBS, 5% HPβCD<1% STDHF<1% SDC and 1% BAC

sodium deoxycholate [SDC]
membrane damage (in words) ([3]; 1% w/v, 15 min daily, five days): severe membrane damage
% WL, reduction in weight (weight loss) caused by the 15 minute treatment as % of initial body weight of the day ([3]; day 1): 12.73%
% MP, mucus production as % of the body weight at the start of the day before the treatment ([3]; day 1): 7.6%
ALP released into PBS ([3]; day 1, 1% w/v): 13.49 U/L
LDH released into PBS ([3]; day 1, 1% w/v): 14.07 U/L
Protein released into PBS ([3]; day 1, 1% w/v): 19.92 μg/30 μL
% WL, reduction in weight (weight loss) caused by the 15 minute treatment as % of initial body weight of the day ([3]; day 2): 12.60%
% MP, mucus production as % of the body weight at the start of the day before the treatment ([3]; day 2): 10.7%
ALP released into PBS ([3]; day 2, 1% w/v): 43.02 U/L
LDH released into PBS ([3]; day 2, 1% w/v): 93.01 U/L
Protein released into PBS ([3]; day 2, 1% w/v): 22.84 μg/30 μL
% WL, reduction in weight (weight loss) caused by the 15 minute treatment as % of initial body weight of the day ([3]; day 3): 8.06%
% MP, mucus production as % of the body weight at the start of the day before the treatment ([3]; day 3): 5.5%
ALP released into PBS ([3]; day 3, 1% w/v): 103.56 U/L
LDH released into PBS ([3]; day 3, 1% w/v): 135.93 U/L
Protein released into PBS ([3]; day 3, 1% w/v): 38.95 μg/30 μL
% WL, reduction in weight (weight loss) caused by the 15 minute treatment as % of initial body weight of the day ([3]; day 4): 11.28%
% MP, mucus production as % of the body weight at the start of the day before the treatment ([3]; day 4): 7.6%
ALP released into PBS ([3]; day 4, 1% w/v): 42.22 U/L
LDH released into PBS ([3]; day 4, 1% w/v): 146.89 U/L
Protein released into PBS ([3]; day 4, 1% w/v): 54.76 μg/30 μL
% WL, reduction in weight (weight loss) caused by the 15 minute treatment as % of initial body weight of the day ([3]; day 5): 8.03%
% MP, mucus production as % of the body weight at the start of the day before the treatment ([3]; day 5): 2.6%
ALP released into PBS ([3]; day 5, 1% w/v): 22.98 U/L
LDH released into PBS ([3]; day 5, 1% w/v): 136.19 U/L
Protein released into PBS ([3]; day 5, 1% w/v): 55.59 μg/30 μL
ranking order of increasing toxicity ([1]; Arion): PBS, 5% HPβCD<1% STDHF<1% SDC and 1% BAC
membrane damage (in words) ([1]; Arion, 1% w/v (SDC data in Table 1, Example 1)): severe membrane damage
reduction in body weight to % of the initial weight ([1]; Arion, 1% w/v, five days (SDC data from Example 1)): about 50%
ranking order of increasing toxicity ([2]; Limax): PBS, 5% HPβCD<1% STDHF<1% SDC and 1% BAC
membrane damage (in words) ([2]; Limax, 1% w/v): severe membrane damage
reduction in body weight to % of the initial weight ([2]; Limax, 1% w/v, five days): about 50%
% MP, mucus production as % of the body weight at the start of the day before the treatment ([2]; day 1, Limax): 11.16%
ALP released into PBS ([2]; day 1, Limax): 11.62 U/L
LDH released into PBS ([2]; day 1, Limax): 9.01 U/L
Protein released into PBS ([2]; day 1, Limax): 10.1 μg/30μL
% MP, mucus production as % of the body weight at the start of the day before the treatment ([2]; day 2, Limax): 10.27%
ALP released into PBS ([2]; day 2, Limax): 3.34 U/L
LDH released into PBS ([2]; day 2, Limax): 13.6 U/L
Protein released into PBS ([2]; day 2, Limax): 15.78 μg/30μL
% MP, mucus production as % of the body weight at the start of the day before the treatment ([2]; day 3, Limax): 13.01%
ALP released into PBS ([2]; day 3, Limax): 2.62 U/L
LDH released into PBS ([2]; day 3, Limax): 26.15 U/L
Protein released into PBS ([2]; day 3, Limax): 18.04 μg/30μL
% MP, mucus production as % of the body weight at the start of the day before the treatment ([2]; day 4, Limax): 19.38%
ALP released into PBS ([2]; day 4, Limax): 6.24 U/L
LDH released into PBS ([2]; day 4, Limax): 85.8 U/L
Protein released into PBS ([2]; day 4, Limax): 35.04 μg/30μL
% MP, mucus production as % of the body weight at the start of the day before the treatment ([2]; day 5, Limax): 8.11%
ALP released into PBS ([2]; day 5, Limax): 28.79 U/L
LDH released into PBS ([2]; day 5, Limax): 145.71 U/L
Protein released into PBS ([2]; day 5, Limax): 88.14 μg/30μL
